From patent US9526739B2, “Compositions and methods to treat cardiac diseases” (University of Connecticut, priority 2010, dated 2016)
Several values for one entry are separate records, joined by “and”; a condition that tells them apart may be missing. Equal entries are not always repeated. Entries after “also recorded” stand apart in the source; their conditions may differ.

Key:
CSQ heart failure mice [1] = test: Echocardiography-derived fractional shortening in CSQ heart failure mice after 28 days of subcutaneous minipump infusion; assay type: in vivo, mouse; conditions: for effect on echocardiography-derived FS / cardiac contractile function versus normal saline (in words) / cardioprotection in the CSQ model (in words): 3.3 μM, 28 days of infusion, CSQ mice; for FS in % in CSQ Mice: at 3.3 μM, subcutaneous Alzet minipump infusion, 28 days, vehicle control 13.78 ± 1.19% (n = 16)
Excerpt: Two of the phosphonates, 4 and 9, were able to cause an improved FS as compared to vehicle (FIG. 1, Table 1) and in comparison to the reference nucleotide 3. […] Thus, in the saturated phosphonate series, the orientation of the phosphorous relative to the methanocarba ring was somewhat structurally permissive, although inclusion of an olefin in the spacer prevented the cardioprotective action. In 11, one OH group of the phosphonate has been replaced with CH3. This reduces the overall charge on the molecule and is intended to make it more bioavailable. Evidently, the binding site of the receptor requires both oxygens for the most favorable improvement in FS. Therefore, as summarized in FIG. 1, the most significant improvement in FS was associated with the saturated homologues containing a 2-Cl substitution and an unmodified phosphonate group, 4 and 9.
Compound 3 and its analogues were dissolved in phosphate-buffered saline, pH=7.4 at 3.3 μM (200 μL total volume), filtered for sterility for in vivo administration at 6 μL per day for 28 days via a mini-osmotic pump (Alzet) in the CSQ mice. Intact heart function in vivo was assessed by echocardiography following infusion of nucleotide- or vehicle

aorta ring preparations = conditions: cited from earlier work
human P2Y1 receptor = biological target: T1, human P2Y1 receptor (Homo sapiens, UniProt P47900); test: FLIPR assay of calcium flux in 1321N1 astrocytoma cells stably expressing the human P2Y1 receptor; assay type: cell-based
T1 construct: T. K. Harden, University of North Carolina School of Medicine; host or cells: 1321N1 human astrocytoma cells
T1 sequence (P47900 whole entry): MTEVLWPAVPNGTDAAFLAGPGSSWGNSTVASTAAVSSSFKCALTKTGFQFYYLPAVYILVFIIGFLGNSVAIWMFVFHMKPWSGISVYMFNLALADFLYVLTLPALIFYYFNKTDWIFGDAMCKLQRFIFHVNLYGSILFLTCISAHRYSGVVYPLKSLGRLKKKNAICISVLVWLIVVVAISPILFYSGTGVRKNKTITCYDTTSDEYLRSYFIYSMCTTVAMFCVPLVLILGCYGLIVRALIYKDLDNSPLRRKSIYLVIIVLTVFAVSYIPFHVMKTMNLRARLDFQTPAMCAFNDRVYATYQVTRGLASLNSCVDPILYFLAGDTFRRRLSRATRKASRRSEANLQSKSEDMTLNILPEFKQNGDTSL
Description: The phosphonate derivatives were tested in a FLIPR assay of calcium flux induced in 1321N1 astrocytoma cells stably expressing the human P2Y1 receptor.
Cells were grown overnight in 100 ml of medium in 96-well flatbottom plates at 37° C. at 5% CO2 or until they reached ˜80% confluency. The calcium-4 assay kit (Molecular Devices, Sunnyvale, Calif.) was used as directed with no washing of cells. Cells were loaded with 40 mL dye with probenecid in each well and incubated for 1 h at rt. The compound plate was prepared with dilutions of various compounds in Hank's Buffer at pH 7.2. Samples were run in duplicate with a FLIPR-Tetra (Molecular Devices) at rt. Cell fluorescence (excitation=485 nm; emission=525 nm) was monitored following exposure to a compound. Increases in intracellular calcium are reported as the maximum fluorescence value after exposure minus the basal fluorescence value before exposure.

hP2Y1 receptor = biological target: T2, hP2Y1 receptor (Homo sapiens, UniProt P47900); conditions: initial characterization, previously reported; read-out: EC50, hP2Y1 receptor agonist, PLC; cited from earlier work
T2 construct: host or cells: said to be the same cell line as the calcium assay (1321N1 astrocytoma cells expressing hP2Y1)
T2 sequence (P47900 whole entry): as above

[2] = Stability in aqueous medium at pH 1.5 (simulated stomach acid); assay type: physicochemical; conditions: pH 1.5, over 24 hours
Excerpt: (§1) The synthetic nucleotide analogue 3 activates the native cardiac P2X receptor, as indicated in electrophysiological experiments with normal cardiac myocytes and those that overexpress CSQ and based on its in vivo ability to improve the heart failure phenotype of these animals. The rigid carbocyclic ring system contained in this derivative stabilizes nucleotides toward the action of nucleotidases. […] In the present study, we have synthesized fully hydrolysis-resistant adenosine monophosphate derivatives based on phosphonate linkages.

[3] = Hydrolysis on incubation at 37° C. with mammalian cell membranes (1321N1 astrocytoma cells); assay type: in vitro ADME; conditions: 1321N1 astrocytoma cell membranes
Excerpt: as §1
Further, the 5′-phosphate 3 and the prodrug 9a (MRS2944) are stable to acidic conditions representative of stomach acid (pH 1.5). […] Without being held to theory, it is believed that the prodrug approach will allow the masked drug to pass through the stomach to be absorbed intact in the intestines, and for the charged phosphoryl group to remain intact until the free drug reaches the site of action in the heart. Therefore, the stable phosphonates would be suitable in this scheme. The cleavage of the prodrug derivatives is to occur in circulation prior to reaching the tissue site of action, because intracellular internalization would be undesirable. Therefore, many of the prodrug schemes that aim for penetration of the masked drug into the cells, i.e. for antiviral or anticancer application of nucleotide derivatives, would likely not be suitable here.

CSQ myocyte = conditions: similar to that by compound 1, characteristic of the P2X4 receptor; cited from earlier work
CSQ-overexpressing mouse = conditions: cited from earlier work
CSQ heart failure mice [4] = test: Echocardiography (FS, LV wall thickness) in CSQ heart failure mice after 14 days of infusion; conditions: for cardioprotection in CSQ mice (in words) / effect on LV fractional shortening versus normal saline (in words): 14 days (two-week) infusion; for FS in % in CSQ Mice: at 10μM, 14 days of infusion, vehicle control 7.13 ± 1.49% (n = 4), phenotypically more severe CSQ mice than in Table 1; for prevention of LV wall thinning in heart failure (in words): two-week infusion
[5] = tested on: control 1321N1 astrocytoma cells; test: Intracellular Ca2+ response in control 1321N1 astrocytoma cells; assay type: cell-based, human; conditions: 10 μM, untransfected control 1321N1 astrocytoma cells
mouse cardiac myocytes = conditions: voltage clamp; cited from earlier work
[6] = 2-week infusion, CSQ mice, NS-infused 0.450±0.007 mm, P<0.05

In the case of `CP(=O)(O)CC12C[C@@H]1[C@@H](n1cnc3c(N)nc(Cl)nc31)[C@H](O)[C@@H]2O` (stereo partly drawn) [Compound 11, (1′S,2′R,3′S,4′R,5′S)-4′-(6-Amino-2-chloropurin-9-yl)-2′,3′-dihydroxy-1′-(methylphosphonicacid)-bicyclo[3.1.0]hexane], the “effect on echocardiography-derived FS / cardiac contractile function versus normal saline (in words)” value (CSQ heart failure mice [1]) is reported as “lower FS values” and the “FS in % in CSQ Mice” value (CSQ heart failure mice [1]) is reported as 15.0 ± 1.2%.
In the case of `Nc1ncnc2c1ncn2[C@H]1[C@H](O)[C@H](O)C2(CCP(=O)(O)O)C[C@H]12` (stereo partly drawn) [Compound 10], the “cardioprotection in the CSQ model (in words)” value (CSQ heart failure mice [1]) is reported as “not protective”, the “effect on echocardiography-derived FS / cardiac contractile function versus normal saline (in words)” value (CSQ heart failure mice [1]) is reported as “lower FS values; also recorded: did not improve the contractile function” and the “FS in % in CSQ Mice” value (CSQ heart failure mice [1]) is reported as 11.15 ± 1.44%.
In the case of `Nc1nc(Cl)nc2c1ncn2[C@H]1[C@H](O)[C@H](O)C2(COP(=O)(O)O)C[C@H]12` (stereo partly drawn) [Compound 3, (1′S, 2′R,3′S,4′R,5′S)-4-(6-amino-2-chloro-9H-purin-9-yl)-1-[phosphoryloxymethyl]bicyclo[3.1.0]hexane-2,3-diol], the vasodilator action (aorta ring preparations) is listed as “inability to dilate aortic rings; also recorded: devoid of any vasodilator action”, the Emax (human P2Y1 receptor; 1321-N1, read-out: maximal effect relative to the full agonist 2-MeSADP, hP2Y1 calcium flux) is listed as about 80% and the EC50 (human P2Y1 receptor; 1321N1 cells stably expressing hP2Y1, FLIPR-Tetra, n=3, read-out: EC50, Ca2+ flux, hP2Y1 receptor) is listed as 722 ± 55 nM. The EC50 (hP2Y1 receptor) was 1890 nM, the “stability to acidic conditions” value [2] was “stable” and the “hydrolysis in the presence of mammalian cell membranes” value [3] was “considerable hydrolysis”. The “current in the CSQ myocyte” value (CSQ myocyte) was “induced a current”, the “longevity compared to vehicle-injected mice” value (CSQ-overexpressing mouse; Alzet mini-osmotic pump) was “significantly increased longevity” and the “cross-section area of the cardiac myocytes” value (CSQ-overexpressing mouse; chronic administration) was “decreases”. The “heart weight/body weight ratio” value (CSQ-overexpressing mouse; chronic administration) was “decreases”, the “hypertrophic and heart failure phenotype” value (CSQ-overexpressing mouse; chronically administered) was “rescued the hypertrophic and heart failure phenotype” and the “FS in % in CSQ Mice” value (CSQ heart failure mice [1]) was 15.47 ± 1.15%.
In the case of `Nc1nc(I)nc2c1ncn2[C@H]1[C@H](O)[C@H](O)C2(CP(=O)(O)O)C[C@H]12` (stereo partly drawn) [Compound 7a, (1′S,2′R,3′S,4′R,5′S)-4′-(6-Amino-2-iodoropurin-9-yl)-2′,3′-(dihydroxy)-1′-(phosphonomethylene)-bicyclo[3.1.0]hexane], the “cardioprotection in CSQ mice (in words)” value (CSQ heart failure mice [4]; CSQ mice) is reported as “abolished protection; also recorded: not protective”, the “effect on LV fractional shortening versus normal saline (in words)” value (CSQ heart failure mice [4]; CSQ mice) is reported as “did not improve FS; also recorded: lower FS values” and the “FS in % in CSQ Mice” value (CSQ heart failure mice [4]) is reported as 10.33 ± 1.77%. The “prevention of LV wall thinning in heart failure (in words)” value (“prevention of LV wall thinning” below) (CSQ heart failure mice [4]; CSQ mice) was “did not improve FS or prevent LV wall thinning”.
With `CSc1nc(N)c2ncn([C@@H]3O[C@H](COP(=O)(O)OP(=O)(O)O)[C@@H](O)[C@H]3O)c2n1` [Compound 2-MeSADP, 2-MeSADP] the “change in intracellular Ca2+ in control cells” value [5] was “no change in intracellular Ca^2+”.
With `CCOP(=O)(CC12C[C@@H]1[C@@H](n1cnc3c(N)nc(Cl)nc31)[C@H](O)[C@@H]2O)OCC` (stereo partly drawn) [Compound 9a, Diethyl-(1′S,2′R,3′S,4′R,5′S)-4′-(6-amino-2-chloropurin-9-yl)-2′,3′-(hydroxy)-bicyclo[3.1.0]hexane phosphonate] the “cardioprotection in CSQ mice (in words)” value (CSQ heart failure mice [4]; CSQ mice) was “not protective”, the “effect on LV fractional shortening versus normal saline (in words)” value (CSQ heart failure mice [4]; CSQ mice) was “did not improve FS” and the “FS in % in CSQ Mice” value (CSQ heart failure mice [4]) was 8.58 ± 2.09%. The “prevention of LV wall thinning” value (CSQ heart failure mice [4]; CSQ mice) was “did not improve FS or prevent LV wall thinning”, the “stability to acidic conditions” value [2] was “stable” and the “hydrolysis in the presence of mammalian cell membranes” value [3] was “considerable hydrolysis”.
With `Nc1nc(Cl)nc2c1ncn2[C@H]1[C@H](O)[C@H](O)C2(CCP(=O)(O)O)C[C@H]12` (stereo partly drawn) [Compound 9] the “cardioprotection in the CSQ model (in words)” value (CSQ heart failure mice [1]) was “clearly protective in vivo”, the “effect on echocardiography-derived FS / cardiac contractile function versus normal saline (in words)” value (CSQ heart failure mice [1]) was “improved FS; also recorded: able to enhance cardiac contractile function” and the “FS in % in CSQ Mice” value (CSQ heart failure mice [1]) was 19.26% and 19.26 ± 1.23%.
For `Nc1nc(Cl)nc2c1ncn2[C@H]1[C@H](O)[C@H](O)C2(CP(=O)(O)O)C[C@H]12` (stereo partly drawn) [Compound 4, (1′S,2′R,3′S,4′R,5′S)-4′-(6-Amino-2-chloropurin-9-yl)-2′,3′-(dihydroxy)-1′-(phosphonomethylene)-bicyclo[3.1.0]hexane], the “cardioprotection in the CSQ model (in words)” value (CSQ heart failure mice [1]) was “active”, the “effect on echocardiography-derived FS / cardiac contractile function versus normal saline (in words)” value (CSQ heart failure mice [1]) was “increased shortening of both the septum and left ventricular (LV) free wall; also recorded: able to improve in vivo cardiac contractile performance; also recorded: improved echocardiographically derived FS” and the “FS in % in CSQ Mice” value (CSQ heart failure mice [1]) was 20.25% and 20.25 ± 1.19%.
For `Nc1nc(Cl)nc2c1ncn2[C@H]1[C@H](O)[C@H](O)C2(CSP(=O)(O)O)C[C@H]12` (stereo partly drawn) [Compound 4a], the “LV posterior wall thickness” value (CSQ heart failure mice [4]; [6]) was 0.493±0.016 mm, the “LV septal wall thickness” value (CSQ heart failure mice [4]; [6]) was 0.492±0.012 mm and the “cardioprotection in CSQ mice (in words)” value (CSQ heart failure mice [4]; CSQ mice) was “could protect the CSQ mice”. For the same compound, the “FS in % in CSQ Mice” value (CSQ heart failure mice [4]) was 14.33 ± 3.77%.
For `Nc1ncnc2c1ncn2[C@H]1[C@H](O)[C@H](O)C2(/C=C/P(=O)(O)O)C[C@H]12` (stereo partly drawn) [Compound 8, (1′S,2′R,3′S,4′R,5′S)-4′-(6-Aminopurin-9-yl)-2′,3′-(dihydroxy)-1′-[(E)-phosphonoethenyl]-bicyclo[3.1.0]hexane], the “cardioprotection in the CSQ model (in words)” value (CSQ heart failure mice [1]) was “not protective”, the “effect on echocardiography-derived FS / cardiac contractile function versus normal saline (in words)” value (CSQ heart failure mice [1]) was “lower FS values” and the “FS in % in CSQ Mice” value (CSQ heart failure mice [1]) was 13.88 ± 2.12%.
For `Nc1ncnc2c1ncn2[C@H]1[C@H](O)[C@H](O)C2(CP(=O)(O)O)C[C@H]12` (stereo partly drawn) [Compound 5, (1′S,2′R,3′S,4′R,5′S)-4′-(6-Aminopurin-9-yl)-2′,3′-(dihydroxy)-1′-(phosphonomethylene)-bicyclo[3.1.0]hexane], the “FS in % in CSQ Mice” value (CSQ heart failure mice [1]) was 16.23 ± 0.93%.
For `CNc1nc(I)nc2c1ncn2[C@H]1C[C@H](OP(=O)(O)O)[C@]2(COP(=O)(O)O)C[C@H]12` [MRS2500], the “block of the membrane current evoked by 3” value (mouse cardiac myocytes) is listed as “could not block the membrane current evoked by 3”.
With `Nc1nc(Cl)nc2c1ncn2[C@H]1[C@H](O)[C@H](O)C2(/C=C/P(=O)(O)O)C[C@H]12` (stereo partly drawn) [Compound 7, (1′S,2′R,3′S,4′R,5′S)-4′-(6-Amino-2-chloropurin-9-yl)-2′,3′-(dihydroxy)-1′-[(E)-phosphonoethenyl]-bicyclo[3.1.0]-hexane] the “effect on LV fractional shortening versus normal saline (in words)” value (CSQ heart failure mice [4]; CSQ mice) was “did not improve FS”, the “prevention of LV wall thinning” value (CSQ heart failure mice [4]; CSQ mice) was “did not improve FS or prevent LV wall thinning” and the “cardioprotection in the CSQ model (in words)” value (CSQ heart failure mice [1]) was “not protective”. For the same compound, the “effect on echocardiography-derived FS / cardiac contractile function versus normal saline (in words)” value (CSQ heart failure mice [1]) was “lower FS values” and the “FS in % in CSQ Mice” value (CSQ heart failure mice [1]) was 12.12 ± 1.2%.
